Our source for the inhibition and Activity values is ChEMBL document CHEMBL5678818, “Discovery of potent SOS1 inhibitors that block RAS activation via disruption of the RAS-SOS1 interaction” (Proc Natl Acad Sci U S A, 2019).

The species entered for one assay is Homo sapiens. Nature of the assay: Inhibition of N-terminal GST-tagged recombinant human SOS1 H905A mutant (564 to 1049 residues) expressed in Escherichia coli assessed as reduction in KRAS G12C mutant activation at 10 uM by HTRF analysis relative to control. (Time-resolved FRET reads energy transfer from a long-lived donor to a nearby acceptor.)
Assay [1] concerns the target T1, Phosphatidylinositol 5-phosphate 4-kinase type-2 gamma (Homo sapiens) (UniProt Q8TBX8).
T1 sequence (whole entry): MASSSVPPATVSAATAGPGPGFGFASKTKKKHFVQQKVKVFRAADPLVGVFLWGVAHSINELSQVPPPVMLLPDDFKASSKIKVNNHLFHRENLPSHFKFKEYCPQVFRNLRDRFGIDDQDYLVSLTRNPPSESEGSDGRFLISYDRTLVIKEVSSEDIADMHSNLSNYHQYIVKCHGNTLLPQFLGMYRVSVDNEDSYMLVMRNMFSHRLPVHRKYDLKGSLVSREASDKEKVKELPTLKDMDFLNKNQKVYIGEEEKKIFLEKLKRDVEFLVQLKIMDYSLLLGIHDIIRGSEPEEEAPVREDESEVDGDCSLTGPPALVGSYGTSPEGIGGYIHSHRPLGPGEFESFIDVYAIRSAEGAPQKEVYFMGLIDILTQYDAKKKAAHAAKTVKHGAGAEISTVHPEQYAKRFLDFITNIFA
In words: Inhibition of PIP5K2C (unknown origin) assessed as residual activity at 1000 nM by KINOMEscan analysis relative to control.

Assay [2] addresses Death-associated protein kinase 3 (Homo sapiens) (UniProt O43293). Nature of the assay: Inhibition of DAPK3 (unknown origin) assessed as residual activity at 1000 nM by KINOMEscan analysis relative to control.
The target of assay [3] is Insulin-like growth factor 1 receptor (Homo sapiens) (UniProt P08069). Nature of the assay: Inhibition of IGF1R (unknown origin) assessed as residual activity at 100 nM by KINOMEscan analysis relative to control.
Chain of Insulin-like growth factor 1 receptor (Homo sapiens) (P08069 31-736 limits assumed): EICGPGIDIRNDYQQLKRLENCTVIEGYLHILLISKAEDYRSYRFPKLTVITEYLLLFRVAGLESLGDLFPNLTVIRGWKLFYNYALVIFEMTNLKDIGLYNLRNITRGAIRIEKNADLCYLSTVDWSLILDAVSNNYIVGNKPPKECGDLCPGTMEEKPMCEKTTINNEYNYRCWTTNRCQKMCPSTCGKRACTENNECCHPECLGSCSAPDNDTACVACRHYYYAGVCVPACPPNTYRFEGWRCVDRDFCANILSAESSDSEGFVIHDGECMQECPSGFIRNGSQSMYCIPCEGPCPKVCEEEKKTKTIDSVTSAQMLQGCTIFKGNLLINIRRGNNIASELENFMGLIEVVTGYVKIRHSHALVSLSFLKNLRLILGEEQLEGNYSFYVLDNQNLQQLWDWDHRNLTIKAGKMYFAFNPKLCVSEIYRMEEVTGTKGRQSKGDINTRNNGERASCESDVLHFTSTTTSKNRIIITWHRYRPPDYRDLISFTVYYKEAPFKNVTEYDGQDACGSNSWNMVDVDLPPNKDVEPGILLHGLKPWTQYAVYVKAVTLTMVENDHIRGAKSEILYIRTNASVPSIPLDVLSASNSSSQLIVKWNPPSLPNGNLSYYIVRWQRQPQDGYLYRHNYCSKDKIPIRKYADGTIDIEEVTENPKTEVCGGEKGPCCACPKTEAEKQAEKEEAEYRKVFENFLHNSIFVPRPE
Chain of Insulin-like growth factor 1 receptor (Homo sapiens) (P08069 741-1367 limits assumed): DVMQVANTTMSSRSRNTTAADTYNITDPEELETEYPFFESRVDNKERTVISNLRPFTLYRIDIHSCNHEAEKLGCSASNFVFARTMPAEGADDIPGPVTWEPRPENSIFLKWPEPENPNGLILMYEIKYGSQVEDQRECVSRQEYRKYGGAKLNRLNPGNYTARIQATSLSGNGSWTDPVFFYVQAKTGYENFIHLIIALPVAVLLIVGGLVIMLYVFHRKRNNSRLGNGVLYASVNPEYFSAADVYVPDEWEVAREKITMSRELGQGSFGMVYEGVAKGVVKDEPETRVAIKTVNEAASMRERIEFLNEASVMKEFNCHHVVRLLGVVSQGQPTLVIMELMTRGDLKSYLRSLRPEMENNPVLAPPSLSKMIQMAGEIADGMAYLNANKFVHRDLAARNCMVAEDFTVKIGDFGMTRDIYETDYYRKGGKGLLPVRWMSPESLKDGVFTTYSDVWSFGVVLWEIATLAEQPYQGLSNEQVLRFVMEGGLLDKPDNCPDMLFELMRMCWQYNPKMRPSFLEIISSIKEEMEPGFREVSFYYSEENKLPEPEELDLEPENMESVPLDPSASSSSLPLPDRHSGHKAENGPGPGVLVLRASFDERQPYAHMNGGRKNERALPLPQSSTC
In assay [4] the target is T2, Serine/threonine-protein kinase Nek3 (Homo sapiens) (UniProt P51956).
T2 sequence (whole entry): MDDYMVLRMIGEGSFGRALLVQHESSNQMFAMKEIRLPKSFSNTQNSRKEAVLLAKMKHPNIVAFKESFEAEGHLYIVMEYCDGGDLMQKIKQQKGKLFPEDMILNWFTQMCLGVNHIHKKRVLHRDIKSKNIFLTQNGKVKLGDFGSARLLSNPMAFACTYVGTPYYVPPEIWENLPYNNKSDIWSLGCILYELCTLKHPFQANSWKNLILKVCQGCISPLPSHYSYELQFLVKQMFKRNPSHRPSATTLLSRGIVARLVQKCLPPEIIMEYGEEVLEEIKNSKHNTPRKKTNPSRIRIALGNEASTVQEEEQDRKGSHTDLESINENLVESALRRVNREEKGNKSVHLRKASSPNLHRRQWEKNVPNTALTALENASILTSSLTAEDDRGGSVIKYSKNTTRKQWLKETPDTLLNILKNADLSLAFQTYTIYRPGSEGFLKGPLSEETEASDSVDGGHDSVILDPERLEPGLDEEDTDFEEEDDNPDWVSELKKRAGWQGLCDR
Nature of the assay: Inhibition of NEK3 (unknown origin) assessed as residual activity at 1000 nM by KINOMEscan analysis relative to control.

The target of assay [5] is Serine/threonine-protein kinase Chk2 (Homo sapiens) (UniProt O96017). In words: Inhibition of CHEK2 (unknown origin) assessed as residual activity at 1000 nM by KINOMEscan analysis relative to control.
Chain of Serine/threonine-protein kinase Chk2 (Homo sapiens) (O96017 whole entry, canonical isoform): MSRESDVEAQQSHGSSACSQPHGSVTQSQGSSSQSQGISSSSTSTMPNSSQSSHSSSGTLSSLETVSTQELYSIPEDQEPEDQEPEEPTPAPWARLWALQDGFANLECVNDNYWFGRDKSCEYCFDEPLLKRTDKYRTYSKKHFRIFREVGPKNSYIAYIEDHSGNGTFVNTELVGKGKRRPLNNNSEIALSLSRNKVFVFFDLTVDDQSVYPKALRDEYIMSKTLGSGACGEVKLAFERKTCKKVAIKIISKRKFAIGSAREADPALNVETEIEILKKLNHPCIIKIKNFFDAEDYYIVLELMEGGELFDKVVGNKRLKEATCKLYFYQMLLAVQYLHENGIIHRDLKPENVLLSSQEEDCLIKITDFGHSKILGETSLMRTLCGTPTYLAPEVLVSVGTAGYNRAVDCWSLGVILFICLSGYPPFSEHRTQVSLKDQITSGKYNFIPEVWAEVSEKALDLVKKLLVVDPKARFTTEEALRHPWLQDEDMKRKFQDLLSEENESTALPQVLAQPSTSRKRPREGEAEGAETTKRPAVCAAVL
Assay [6] relates to Phosphatidylinositol 4,5-bisphosphate 3-kinase catalytic subunit alpha isoform (Homo sapiens), P42336 [H1047L]. In words: Inhibition of PIK3CA H1047L mutant (unknown origin) assessed as residual activity at 1000 nM by KINOMEscan analysis relative to control.
Chain of Phosphatidylinositol 4,5-bisphosphate 3-kinase catalytic subunit alpha isoform (Homo sapiens), P42336 [H1047L] (P42336 whole entry H1047L, canonical isoform): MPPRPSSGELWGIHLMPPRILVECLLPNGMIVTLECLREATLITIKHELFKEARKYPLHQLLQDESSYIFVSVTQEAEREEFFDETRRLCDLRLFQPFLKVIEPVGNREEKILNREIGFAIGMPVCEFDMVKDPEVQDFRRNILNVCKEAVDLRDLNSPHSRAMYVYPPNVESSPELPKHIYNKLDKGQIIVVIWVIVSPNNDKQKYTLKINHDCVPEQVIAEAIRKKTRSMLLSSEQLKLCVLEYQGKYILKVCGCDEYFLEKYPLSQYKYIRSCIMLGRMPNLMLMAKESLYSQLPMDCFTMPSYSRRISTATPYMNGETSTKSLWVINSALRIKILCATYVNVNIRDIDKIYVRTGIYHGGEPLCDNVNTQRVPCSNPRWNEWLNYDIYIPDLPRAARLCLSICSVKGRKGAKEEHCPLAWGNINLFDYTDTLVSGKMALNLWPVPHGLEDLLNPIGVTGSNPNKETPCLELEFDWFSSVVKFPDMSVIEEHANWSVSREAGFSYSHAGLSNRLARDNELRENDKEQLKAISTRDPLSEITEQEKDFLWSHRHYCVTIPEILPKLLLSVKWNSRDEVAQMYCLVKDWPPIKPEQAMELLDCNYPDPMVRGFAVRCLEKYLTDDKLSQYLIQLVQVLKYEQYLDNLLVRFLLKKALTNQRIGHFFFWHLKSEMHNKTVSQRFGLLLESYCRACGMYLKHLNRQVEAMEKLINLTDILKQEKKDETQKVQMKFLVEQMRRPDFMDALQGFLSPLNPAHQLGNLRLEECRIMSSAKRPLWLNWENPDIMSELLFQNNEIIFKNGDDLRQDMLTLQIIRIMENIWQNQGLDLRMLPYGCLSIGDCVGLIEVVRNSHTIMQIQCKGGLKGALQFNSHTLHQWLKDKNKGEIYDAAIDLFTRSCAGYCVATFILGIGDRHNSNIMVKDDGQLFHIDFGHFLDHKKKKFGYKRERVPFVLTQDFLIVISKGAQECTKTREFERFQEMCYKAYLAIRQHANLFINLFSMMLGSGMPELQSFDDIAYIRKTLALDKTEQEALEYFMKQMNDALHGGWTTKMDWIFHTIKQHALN
Assay [7] has as its target Serine/threonine-protein kinase 4 (Homo sapiens) (UniProt Q13043). In words: Inhibition of MST1 (unknown origin) assessed as residual activity at 1000 nM by KINOMEscan analysis relative to control.
In assay [8] the target is T3, Tyrosine-protein kinase receptor TYRO3 (Homo sapiens) (UniProt Q06418).
T3 sequence (whole entry): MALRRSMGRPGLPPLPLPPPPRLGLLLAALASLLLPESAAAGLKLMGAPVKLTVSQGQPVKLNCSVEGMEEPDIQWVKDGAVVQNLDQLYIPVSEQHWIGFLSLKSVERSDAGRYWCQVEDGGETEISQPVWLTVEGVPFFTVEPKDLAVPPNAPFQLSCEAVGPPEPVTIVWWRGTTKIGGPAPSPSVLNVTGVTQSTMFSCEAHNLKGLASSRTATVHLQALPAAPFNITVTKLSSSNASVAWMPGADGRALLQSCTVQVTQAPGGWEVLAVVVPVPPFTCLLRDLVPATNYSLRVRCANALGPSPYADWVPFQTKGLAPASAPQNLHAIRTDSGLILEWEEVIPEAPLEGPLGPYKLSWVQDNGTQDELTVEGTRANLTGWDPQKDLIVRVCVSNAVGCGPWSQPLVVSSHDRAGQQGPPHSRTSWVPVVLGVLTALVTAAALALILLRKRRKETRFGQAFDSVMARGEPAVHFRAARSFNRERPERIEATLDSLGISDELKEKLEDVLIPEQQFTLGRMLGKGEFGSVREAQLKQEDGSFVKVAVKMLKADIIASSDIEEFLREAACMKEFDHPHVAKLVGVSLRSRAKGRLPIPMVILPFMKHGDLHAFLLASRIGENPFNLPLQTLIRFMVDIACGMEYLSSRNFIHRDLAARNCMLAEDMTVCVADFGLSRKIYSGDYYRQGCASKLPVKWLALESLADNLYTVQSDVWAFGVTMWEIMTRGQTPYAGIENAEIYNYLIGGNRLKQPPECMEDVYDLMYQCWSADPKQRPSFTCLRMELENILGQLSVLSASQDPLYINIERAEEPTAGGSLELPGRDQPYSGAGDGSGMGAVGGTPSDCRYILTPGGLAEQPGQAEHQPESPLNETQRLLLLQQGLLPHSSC
In words: Inhibition of TYRO3 (unknown origin) assessed as residual activity at 1000 nM by KINOMEscan analysis relative to control.

Chain of Serine/threonine-protein kinase 4 (Homo sapiens) (Q13043 whole entry, looked up): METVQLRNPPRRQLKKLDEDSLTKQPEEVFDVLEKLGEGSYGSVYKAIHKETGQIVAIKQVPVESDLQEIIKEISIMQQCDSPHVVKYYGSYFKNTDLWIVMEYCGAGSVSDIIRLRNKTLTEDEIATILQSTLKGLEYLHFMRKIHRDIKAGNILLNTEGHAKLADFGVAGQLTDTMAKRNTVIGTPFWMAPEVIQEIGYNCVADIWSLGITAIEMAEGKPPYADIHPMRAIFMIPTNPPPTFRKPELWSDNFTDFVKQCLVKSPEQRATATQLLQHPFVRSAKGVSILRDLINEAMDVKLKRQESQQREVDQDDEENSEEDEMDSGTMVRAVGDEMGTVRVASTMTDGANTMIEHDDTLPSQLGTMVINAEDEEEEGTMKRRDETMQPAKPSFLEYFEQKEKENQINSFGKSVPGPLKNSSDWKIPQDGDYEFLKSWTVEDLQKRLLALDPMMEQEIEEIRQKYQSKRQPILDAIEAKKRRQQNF
Chain of Death-associated protein kinase 3 (Homo sapiens) (O43293 whole entry, looked up): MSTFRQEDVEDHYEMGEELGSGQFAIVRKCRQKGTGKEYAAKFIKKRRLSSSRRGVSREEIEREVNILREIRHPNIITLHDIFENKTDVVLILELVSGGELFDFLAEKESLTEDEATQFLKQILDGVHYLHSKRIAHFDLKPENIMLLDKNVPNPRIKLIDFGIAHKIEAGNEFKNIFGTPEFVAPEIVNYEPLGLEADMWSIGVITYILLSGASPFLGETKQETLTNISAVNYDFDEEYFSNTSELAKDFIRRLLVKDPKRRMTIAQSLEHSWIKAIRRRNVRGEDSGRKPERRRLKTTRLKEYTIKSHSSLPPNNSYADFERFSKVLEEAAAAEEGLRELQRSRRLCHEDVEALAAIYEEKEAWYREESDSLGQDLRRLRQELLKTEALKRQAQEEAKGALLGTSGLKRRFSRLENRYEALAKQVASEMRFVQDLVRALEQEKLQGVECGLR

Usually inhibition stands for the change of the read-out against control, counted positive when it falls. For `COc1cc2ncnc(N[C@H](C)c3cccc4ccccc34)c2cc1OC`, in the assay filed under Homo sapiens, the inhibition came out at 52%. The Activity in [1] is 80%; in [2] it was 100%; in [3], 82%; in assay [4], 93%; in assay [5], 73%; in assay [6], 92%. Also, the Activity amounted to 99% in assay [7] and 90% in assay [8].
As for `COc1cc2nc(C)nc(N[C@H](C)c3cccc(-c4cn[nH]c4)c3)c2cc1OC`, the Activity came to 69% in assay [1]; 76% in assay [2]; 42% in assay [4]; 89% in assay [5]; 96% in [6]; 97% in assay [7]. For the same molecule, the Activity in [8] was found to be 66%.
